“Also recorded” adds a separate entry of the source.
Legend:
[1] = system: Mmachc^de13/de13 mice; test: Survival of treated Mmachc^de13/de13 mutant mice; type: in vivo, mouse; conditions: for median survival: Mmachc^de13/de13 mutants, pregnant dams treated weekly (1 mg) throughout gestation and weaning (prenatal treatment); for mutants alive at 100 days: prenatal treatment
Description: (§1) Survival and phenotype in Mmachc mice: Mendelian ratios at birth, survival, and relative weight: To determine survival, litters were assessed daily after birth and dead pups were noted, removed, and genotyped when tissue was available. Age at time of death was recorded. Weights were measured monthly and the weight of mutants relative to average weight of control littermates was calculated.
(§2) Cobalamin Treatment: OHCbl and MeCbl were obtained from College Pharmacy (Colorado Spring, CO) or prepared at 25 mg/ml concentration and subsequently diluted with 0.9% saline solution to a working solution of 5 mg/ml. OHCbl or MeCbl was delivered by intraperitoneal injections for pups ages P0-P14 and subcutaneous injections for mice post weaning. For in utero treatment studies, pregnant dams were treated with 1 mg/week (100 mg/kg) via subcutaneous injections throughout pregnancy and weaning. For chronic therapy 50 μg/kg dosing was used.
(§3) AAV Vector Design, Production, and Delivery: Two adeno associated viral vectors were designed: AAVrh10-Mmachc, containing the murine Mmachc coding sequence packaged into a rh10 serotype capsid, and AAV9-coMMACHC, containing a codon optimized human MMACHC coding sequence packaged into an AAV9 serotype capsid. AAVs were produced as described previously. AAV viral vectors were delivered via intrahepatic injection at a dose of 1×10^11 GC per pup in the neonatal period (P0-2). ddPCR was conducted using a CMV/CBA probe spanning the promoter/enhancer, reference albumin Dissection of Pregnant Dams: Pregnant dams were either untreated, treated with OHCbl, MeCbl or the combination (1 mg per week) during pregnancy as described and sacrificed at E18.5. Embryos were photographed, tails were collected for genotyping, and the remaining tissue was collected and flash frozen. Embryo weights were measured and the weight of mutants relative to average weight of control littermates was calculated. Crown to rump length of each embryo was also determined using ImageJ software.
(§4) Statistics: Graphpad Prism Software was used for statistical analysis. All data are presented as mean±SD and significance is indicated as follows: p<0.05(*), p<0.01(**), p<0.001 (***), and p<0.0001(****). Kaplan-Meier survival curve significance was determined using the Log-Rank Mantel-Cox test, genotype distribution significance was assessed using the chi-square test, and all other statistics were calculated using the unpaired t-test.

[2] = system: Mmachc^de12/de12 mice; test: Survival of treated Mmachc^de12/de12 mutant mice; type: in vivo, mouse; conditions: prenatal treatment; for median survival: Mmachc^de12/de12 mutants, OHCbl 1 mg, MeCbl 1 mg or 0.5 mg each weekly
Description: as §1, §2, §4

[3] = system: Mmachc^del2 mouse line; test: Genotype distribution at birth (P0-2), Mmachc^del2 litters; type: in vivo; conditions: mice at birth; prenatal treatment
Description: (§5) Genotyping and breeding scheme: Tail biopsies were performed routinely at 10-15 days of life or in rare cases in the first day of life and DNA was extracted using the Qiagen DNEASY® Spin Kit or the MYTAQ® Extract-PCR Kit. Mmachc genotype was determined by a fluorescent PCR method described previously^22 or by Droplet Digital PCR (ddPCR) Mutation Detection Assay (Bio-Rad). ddPCR genotyping was performed by mixing 2 ul of 1:10 diluted DNA, 1.1 ul probe-primer mix, and 7.9 ul water. The primer-probe mix contained the wild-type/mutant primer and fluorescent FAM and HEX probes targeting the mutant and wild-type alleles, respectively. Sample droplets were generated by the QX200 Droplet Digital PCR system, PCR amplified in a thermocycler, and DNA quantified by droplet fluorescence. Mmachc homozygous mutant mice and their heterozygote or wild type control littermates were generated from heterozygous parental crosses unless otherwise noted. In order to eliminate the Pdeb(rdl) mutation present in the FVB/N genetic background which causes retinal degeneration, Mmachc carrier mice were crossed to C57BL/6J mice. Subsequent generations of Mmachc carriers were genotyped for the Pdeb(rdl) mutation using a published PCR method (Gimenez and Montouliu Lab Anim 35, 153-6 (2001)), and mice homozygous for the functional Pdeb(rdl) allele were selected for further breeding. Mice were fed regular or high fat chow and weaned at P21-28.
as §1, §2, §4

[4] = system: Mmachc^del3 mouse line; test: Genotype distribution at birth (P0-2), Mmachc^del3 litters; type: in vivo; conditions: mice at birth; prenatal treatment
Description: as §5, §1, §2, §4

[5] = system: Mmachc^de12/de12 embryos; test: E18.5 embryo weight and pathology, Mmachc^de12/de12; type: in vivo, mouse; conditions: prenatal treatment
Description: as §3

[6] = system: Mmachc^de13/de13 mice; test: Postnatal weight relative to control littermates, Mmachc^de13/de13; type: in vivo, mouse
Description: as §1

[7] = system: Mmachc^de12/de12 mice; test: Postnatal weight, Mmachc^de12/de12; type: in vivo, mouse; conditions: prenatal treatment
Description: as §1

[8] = system: Mmachc^de13/de13 mice; test: Plasma metabolite measurements (GC-MS), Mmachc^de13/de13; type: in vivo, mouse; conditions: for plasma cystathionine: P0-P30; for plasma methylmalonic acid: P0-P30 (two weeks)
Description: Metabolite measurements: Blood samples were collected in heparinized capillary tubes and centrifuged at 2000 rpm for 10 min at 4C. Plasma was diluted 1:40 in water for methylmalonic acid and methylcitrate measurements and undiluted plasma was used for homocysteine and cystathionine measurements. Plasma concentrations were determined by gas chromatography-mass spectrometry (GC-MS).

[9] = system: Mmachc^de13/de13 mice; test: Pigmentation / clinical appearance, Mmachc^de13/de13; type: in vivo, mouse
[10] = system: Mmachc^de12/de12 mice; test: Pigmentation / clinical appearance, Mmachc^de12/de12; type: in vivo, mouse; conditions: prenatal treatment
[11] = system: Mmachc^del3 mouse line; test: Genotype distribution at E18.5, Mmachc^del3 litters; type: in vivo; conditions: mice at E18.5; prenatal treatment
Description: as §3, §4

[12] = system: Mmachc^de13/de13 embryos; test: E18.5 embryo growth parameters, Mmachc^de13/de13; type: in vivo, mouse
Description: as §3

[13] = system: Mmachc^de13/de13 mice; test: Retinal histology and electroretinography, Mmachc^de13/de13; type: in vivo, mouse
Text: The severe neonatal lethality of this model in combination with the fact that the mouse retina develops until ˜P21 made it challenging to study retinal pathology in untreated mice.

[14] = system: cblC patients; test: Natural history cohort of cblC patients (NCT00078078); type: in vivo, human
Description: Extensive data was collected on a large natural history cohort of 61 patients studied every 2-3 years over 15 yrs to evaluate the impact of different approaches to clinical management/cobalamin therapy on disease outcomes (ClinicalTrial.gov ID: NCT00078078). […] Six patients (ages 2.2-3.8 years), who received higher doses of hydroxocobalamin (5-20 mg/day or 0.3-1.4 mg/kg/d) starting between 6 mo-1 yr, presented with variable macular degeneration and improved average FSIQ and ABC scores in the normal range (FSIQ 91.6±5.3; ABC 88.2±10.7), compared to our historic scores in young children <10 y of age on <0.3 mg/kg/day (FSIQ 70.69±19.11, ABC 79.83±17.42).

[15] = 7-13 months, both prenatal OHCbl and prenatal OHCbl+weekly groups
[16] = 7-13 months, prenatal+postnatal OHCbl
[17] = six patients ages 2.2-3.8 years, 5-20 mg/day or 0.3-1.4 mg/kg/d starting between 6 mo-1 yr
[18] = young children <10 y of age on <0.3 mg/kg/day

## C/C1=C2/[N-][C@H]([C@H](CC(N)=O)[C@@]2(C)CCC(=O)NC[C@H](C)OP(=O)([O-])O[C@H]2[C@@H](O)[C@@H](n3cnc4cc(C)c(C)cc43)O[C@@H]2CO)[C@]2(C)N=C(/C(C)=C3N=C(/C=C4N=C1[C@@H](CCC(N)=O)C\4(C)C)[C@@H](CCC(N)=O)[C@]\3(C)CC(N)=O)[C@@H](CCC(N)=O)[C@]2(C)CC(N)=O.[CH3-].[Co+3] [MeCbl, methylcobalamin]
[1]
  median survival: 144 days
  mutants alive at 100 days: 100%
[2]
  median survival: 78 days
  mutants survived beyond 30 days: 100%
[3]
  genotype distribution +/+ (%): 18%
  genotype distribution +/+ n: 14
  genotype distribution +/− (%): 53%
  genotype distribution +/− n: 41
  genotype distribution −/− (%): 29%
  genotype distribution −/− n: 22
[4]
  genotype distribution +/+ (%): 31%
  genotype distribution +/+ n: 38
  genotype distribution +/− (%): 63%
  genotype distribution +/− n: 76
  genotype distribution −/− (%): 6%
  genotype distribution −/− n: 7
[5]; weekly subcutaneous injection of dams, untreated 76.4%
  weight of E18.5 embryos normalized to control values: 89.4 % of controls
[5]; H&E
  pathology at E18.5: ameliorated the pathology in the lungs, liver and brown fat
[6]; prenatal treatment
  size relative to littermates at 3 months: 48%
[7]
  growth at 1 month: appeared growth impaired but this was not significant at 1 month
[8]; prenatal treatment
  plasma cystathionine: reduced cystathionine to control levels; also recorded: decreased to control levels
  homocysteine levels: did not improve
[9]; prenatal treatment
  pigmentation of fur, ears and tails: minimal pigmentation differences
[10]
  pigmentation of the ears: improvement in pigmentation of the ears

## C/C1=C2/[N-][C@H]([C@H](CC(N)=O)[C@@]2(C)CCC(=O)NC[C@@H](C)OP(=O)([O-])O[C@H]2[C@@H](O)[C@@H](n3cnc4cc(C)c(C)cc43)O[C@@H]2CO)[C@]2(C)N=C(/C(C)=C3N=C(/C=C4N=C1[C@@H](CCC(N)=O)C\4(C)C)[C@@H](CCC(N)=O)[C@]\3(C)CC(N)=O)[C@@H](CCC(N)=O)[C@]2(C)CC(N)=O.[Co+3].[OH-] [OHCbl, hydroxocobalamin]
[1]
  median survival: 109 days
  mutants alive at 100 days: 50%
[1]; prenatal+weekly OHCbl
  longest surviving: > 1 year
[2]
  median survival: 25 days
[3]
  genotype distribution +/+ (%): 29%
  genotype distribution +/+ n: 76
  genotype distribution +/− (%): 66%
  genotype distribution +/− n: 171
  genotype distribution −/− (%): 5%
  genotype distribution −/− n: 13
[4]
  genotype distribution +/+ (%): 30%
  genotype distribution +/+ n: 105
  genotype distribution +/− (%): 54%
  genotype distribution +/− n: 192
  genotype distribution −/− (%): 16%
  genotype distribution −/− n: 57
[11]
  genotype distribution +/+ (%): (23) %
  genotype distribution +/+ n: 14
  genotype distribution +/− (%): (46) %
  genotype distribution +/− n: 28
  genotype distribution −/− (%): (31) %
  genotype distribution −/− n: 19
[12]; de13/de13, prenatal treatment, n=11
  embryo weight normalized to control littermates: 0.8204±0.03641
[12]; prenatal treatment
  anterioposterior abdominal dimension (APD): did not improved
  crown rump length (IUGR): did not rescue the IUGR
[6]; prenatal OHCbl
  relative weight of mutant mice at two weeks: improved the weight vs untreated
[6]; prenatal OHCbl+weekly
  relative weight of mutant mice at two weeks: improved the weight vs untreated
[8]; [15]
  homocysteine: remained elevated vs controls but was lower
  methylmalonic acid: remained elevated vs controls and untreated mutants
[8]; [16]
  methylmalonic acid levels in the blood [MMA]: > 1500 µM
  total homocysteine levels (tHCYS): 31 µM
[8]; prenatal treatment only
  plasma methylmalonic acid: no decrease
[8]; weekly (chronic) OHCbl
  plasma methylmalonic acid: decreased
[8]; prenatal treatment
  plasma cystathionine: elevated compared to untreated mutants; also recorded: increased
  homocysteine levels: did not improve
[8]; prenatal and weekly treatment
  homocysteine levels: did not improve
[9]; long term (prenatal+weekly) treatment
  pigmentation of ears and tail: decreased hypopigmentation
[13]; 6-9 months of age
  retinal histology: within normal limits
[13]; prenatal OHCbl/AAV9 at 9 months, OHCbl at 6 months
  electroretinography (ERG): diminished scotopic B waves
[14]; adults and children on 25 mg/day monitored 2-8 years
  adverse events: no significant adverse events
[14]; single patient, 5 mg
  ABC score: 79
  eye exam: normal
[14]; [17]
  average ABC score: 88.2±10.7
  average FSIQ score: 91.6±5.3
[14]; [18]
  ABC score (historic): 79.83±17.42
  FSIQ score (historic): 70.69±19.11

— patent US20230390322A1, “HIGH CONCENTRATION METHYLCOBALAMIN OR COMBINATION OF METHYL- AND HYDROXY-COBALAMIN FOR THE TREATMENT OF COBALAMIN C DEFICIENCY DISORDERS” (THE U.S.A., as represented by the Secretary, Department of …, priority 2020, published 2023)
